From patent US8168656B2, “Indoleacetic acid and indenacetic acid derivatives as therapeutic agents with reduced gastrointestinal toxicity” (Vanderbilt University, priority 2009, dated 2012)

Assays:
HCT-116 cells = assay: Cell viability assay (WST-1); type: cell-based; details: Homo sapiens, concentration that reduces cell viability by 50%, read-out: ED50 HCT-116
Description: (§1) RKO and HCT-116 cells (human colorectal cancer cell lines) were cultured in microtiter plates (tissue culture grade, 96-well flat) in a final volume of 100 μl culture medium containing 5-8×10^4 cells and the final concentrations of chemicals (1-500 μM). Cells were incubated in a humidified atmosphere for 8-24 hours. To the cultures, 10 μl of cell proliferation reagent, WST-1 (Roche Applied Science, Indianapolis, Ind., United States of America) was added, and reincubated for 1-2 hours. The absorbance of the samples was determined using a microtiter plate reader at a wavelength of 405-450 nm against background control. Reference wavelength was 620 nm. The tetrazolium salt, WST-1 (4-[3-(4-Iodophenyl)-2-(4-nitrophenyl)-2H-5-tetrazolio]-1,3-benzene disulfonate) was metabolized to formazan by the “succinate-tetrazolium reductase” system, which exists in mitochondria and is active only in viable cells. Thus, the formation of formazan (dark yellow color) is proportional to the viable cell numbers.
(§2) The generated data points were used to calculate ED50 values by creating a sigmoidal dose-response curve using non-linear regression. ED50 valued were calculated using the statistical analysis program PRISM® (GraphPad Software, Inc., San Diego, Calif., United States of America).

RKO cells = assay: Cell viability assay (WST-1); type: cell-based; details: Homo sapiens, concentration that reduces cell viability by 50%, read-out: ED50 RKO
Description: as §1, §2

| SMILES | EC50 (HCT-116 cells) | EC50 (RKO cells) |
| --- | --- | --- |
| CSc1ccc(/C=C2\C=C(CC(=O)Nc3ccccc3)c3cc(F)ccc32)cc1 [Compound 2] | > 3000 nM | > 3000 nM |
| CSc1ccc(/C=C2\C=C(CC(=O)NCc3ccccc3)c3cc(F)ccc32)cc1 [Compound 3] | 3900 ± 900 nM | 1100 ± 700 nM |
| CSc1ccc(/C=C2\C=C(CC(=O)NCCc3ccccc3)c3cc(F)ccc32)cc1 [Compound 4] | > 3000 nM | > 3000 nM |
| CSc1ccc(/C=C2\C=C(CC(=O)NCCCc3ccccc3)c3cc(F)ccc32)cc1 [Compound 5] | > 3000 nM | > 3000 nM |
| CSc1ccc(/C=C2\C=C(CC(=O)N(C)Cc3ccccc3)c3cc(F)ccc32)cc1 [Compound 6] | > 3000 nM | > 3000 nM |
| CSc1ccc(/C=C2\C=C(CC(=O)N[C@@H](C)c3ccccc3)c3cc(F)ccc32)cc1 [Compound 7] | > 3000 nM | > 3000 nM |
| CSc1ccc(/C=C2\C=C(CC(=O)N[C@H](C)c3ccccc3)c3cc(F)ccc32)cc1 [Compound 8] | > 3000 nM | > 3000 nM |
| CSc1ccc(/C=C2\C=C(CC(=O)NCc3ccncc3)c3cc(F)ccc32)cc1 [Compound 9] | > 3000 nM | > 3000 nM |
| CSc1ccc(/C=C2\C=C(CC(=O)Nc3ccc(F)cc3Cl)c3cc(F)ccc32)cc1 [Compound 10] | > 3000 nM | > 3000 nM |
| COc1ccc(NC(=O)CC2=C/C(=C\c3ccc(SC)cc3)c3ccc(F)cc32)cc1 [Compound 11] | > 3000 nM | > 3000 nM |
| CSc1ccc(/C=C2\C=C(CC(=O)NCc3ccc(N)cc3)c3cc(F)ccc32)cc1 [Compound 12] | > 3000 nM | 2300 ± 30 nM |
| CSc1ccc(/C=C2\C=C(CC(=O)NCc3cccc(N)c3)c3cc(F)ccc32)cc1 [Compound 13] | 2080 ± 80 nM | 990 ± 30 nM |
| CSc1ccc(/C=C2\C=C(CC(=O)NCc3ccccc3N)c3cc(F)ccc32)cc1 [Compound 14] | > 3000 nM | > 3000 nM |
| CSc1ccc(/C=C2\C=C(CC(=O)NCc3ccc(O)cc3)c3cc(F)ccc32)cc1 [Compound 15] | 1200 ± 200 nM | 100 ± 40 nM |
| CSc1ccc(/C=C2\C=C(CC(=O)NCc3cccc(O)c3)c3cc(F)ccc32)cc1 [Compound 16] | 1470 ± 30 nM | 830 ± 60 nM |
| CSc1ccc(/C=C2\C=C(CC(=O)NCc3ccc(C)cc3)c3cc(F)ccc32)cc1 [Compound 17] | 1200 ± 100 nM | 730 ± 60 nM |
| CSc1ccc(/C=C2\C=C(CC(=O)NCc3cccc(C)c3)c3cc(F)ccc32)cc1 [Compound 18] | > 3000 nM | > 3000 nM |
| CSc1ccc(/C=C2\C=C(CC(=O)NCc3ccccc3C)c3cc(F)ccc32)cc1 [Compound 19] | > 3000 nM | > 3000 nM |
| CSc1ccc(/C=C2\C=C(CC(=O)NCc3ccc(Cl)cc3)c3cc(F)ccc32)cc1 [Compound 20] | 800 ± 100 nM | 630 ± 70 nM |
